# Data published in article PMC6323428, “Elucidation of the Intestinal Absorption Mechanism of Loganin in the Human Intestinal Caco-2 Cell Model” (Evidence-based Complementary and Alternative Medicine : eCAM, 2018).
# How the values were obtained:
# [1] = system: human intestinal Caco-2 cells; experiment: MTT cytotoxicity (cell viability) assay; assay type: cell-based
# Experimental: Cell viability was assessed using an MTT assay. Briefly, 0.1 mL of human intestinal Caco-2 cells was seeded onto 96-well plates at a density of 1×10^5 cells per well in a 96-well plate. The cells were grown in an atmosphere with 5% CO2 and 95% relative humidity over approximately 48 h. Subsequently, the culture medium was replaced with HBSS containing different concentrations of loganin (0.1-200 μM); the final concentration of dimethyl sulfoxide (DMSO) in HBSS remained at <1%. The negative control was HBSS containing 1% DMSO. […] Then, 0.2 mL of 0.5mg/mL MTT solution was added to each well and incubated for 4 h in dark. The medium was then removed, the MTT-formazan crystals were solubilized by incubating with 150 μL of DMSO with gentle shaking for 10 min, and absorbance was determined at 490 nm in a Multiskan Spectrum microplate reader (Thermo Labsystems, MA, USA). In each MTT assay, every sample was tested in five replicates and the viability of the nontreated control cells was arbitrarily defined as 100%.
# [2] = system: human intestinal Caco-2 cell monolayers; experiment: Bidirectional transport across Caco-2 cell monolayers (concentration, time, pH, temperature; control without inhibitor); assay type: in vitro ADME
# Experimental: (§1) Cells were maintained in DMEM with 10% FBS, 1× nonessential amino acids, and 1× penicillin and streptomycin at 37°C with 5% CO2. Cells of passage 35-40 were used in this study to maintain relatively constant cellular phenotypes. The medium was replaced every 2-3 days during incubation. After reaching approximately 80% confluence, the cells were detached using 0.02% ethylenediaminetetraacetic acid (EDTA) and 0.05% trypsin at a density of 5.3×10^4 cells/cm^2 on a 60-mm plastic culture dish for the uptake experiment or a 12-mm polyester membrane insert in a 12-well plate for the permeation experiment. The media in the culture plates were changed every two days for the first week after seeding and replaced daily afterward. The integrity of the cell monolayers was examined by measuring the transepithelial electrical resistance (TEER) with a Millicell-ERS-electrode (Millipore Corp, Billerica, MA, USA). After 21-23 days, monolayers with a TEER value (TEER=[TEERtest- TEERbackground]×area) above 500Ωcm^2 were used during the transport experiments.
# (§2) Before the experiments, the human intestinal Caco-2 cell monolayers were washed twice with HBSS medium (pH 7.4). The transport experiments were conducted by adding the drug solutions (containing 1% DMSO) to either the apical (AP, 0.5 mL) or basolateral side (BL, 1.0 mL), while the receiving chamber contained the corresponding volume of blank HBSS medium. The monolayers were incubated at 37°C, and 50 μL samples were taken at 15, 30, 45, 60, 90, and 120 min from the acceptor compartment, and the volume was then immediately replaced with50 μL of fresh, prewarmed blank HBSS. TEER measurements for assessing the membrane integrity took place before and after the experiment. The samples were frozen immediately and stored below −80°C before analysis.
# (§3) The loganin transport (20 μM) at 4°C and 37°C was evaluated in the AP to BL direction to investigate the effect of temperature. The effect of pH on the loganin transport (20 μM) in the AP to BL direction was studied using the following pH combinations for the HBSS in the acceptor/donor compartments: 6.0/7.4 and 7.4/7.4.
# (§4) UPLC-MS/MS data acquisition was performed using Analyst 1.5.2 and MultiQuant 2.1.1 software (Applied Biosystems). The data were analyzed by SPSS Software. The apparent permeability coefficient (Papp) was calculated according to Papp = (dQ/dt)/(A·C0)
# (§5) where dQ/dt is the steady-state flux (nmol/s), A is the surface area of the insert (cm^2); C0 is the initial concentration. The efflux ratio (P) was determined by calculating the ratio of PappBA versus PappAB as in(1) P=PappBA/PappAB Statistical analysis was performed with analysis of variance (ANOVA) after confirmation of normal distributions.
# [3] = as above; assay type: in vitro ADME, human; details: human; for Papp A→B at 60 min, 20 µM: Caco-2, pH 7.4, loganin 20 μM, AP to BL
# Experimental: as §1, §2, §3, §4, §5
# OATs = experiment: Loganin transport across Caco-2 monolayers with OATs inhibitor cimetidine; assay type: in vitro ADME, human
# Experimental: as §2
# (§6) Several efflux and influx transporters were investigated for their effects on the transport flux of loganin. One hundred μM verapamil was added to evaluate the selectivity of P-glycoprotein (P-gp); inhibiting the efflux by multidrug resistance-associated proteins (MRPs) was undertaken by adding 100μM MK571, 50μM benzbromarone, and 200μM indomethacin [21–23]; 25 μM apigenin was used to investigate breast cancer resistance protein (BCRP); 50 μM sodium vanadate and cimetidine were used as Na^+/K^+pump and […] inhibitors.
# as §4, §5
# MRPs = experiment: Loganin transport across Caco-2 monolayers with MRPs inhibitor MK 571; assay type: in vitro ADME, human; set-up: key to Modulatory effect: +: Indicates that the inhibitor has significant effect on the loganin transport
# Experimental: as §2, §6, §4, §5
# MRP2 [4] = molecular target: T1, MRP2 (Homo sapiens, UniProt Q92887); experiment: Loganin transport across Caco-2 monolayers with MRP2 inhibitor indomethacin; assay type: in vitro ADME; set-up: key to Modulatory effect: +: Indicates that the inhibitor has significant effect on the loganin transport
# T1 construct: MRP2 and MRP3 were the main apically and basolaterally localized MRPs of the Caco-2 cells; endogenous in cells; host or cells: Caco-2 monolayers
# T1 sequence (Q92887 whole entry): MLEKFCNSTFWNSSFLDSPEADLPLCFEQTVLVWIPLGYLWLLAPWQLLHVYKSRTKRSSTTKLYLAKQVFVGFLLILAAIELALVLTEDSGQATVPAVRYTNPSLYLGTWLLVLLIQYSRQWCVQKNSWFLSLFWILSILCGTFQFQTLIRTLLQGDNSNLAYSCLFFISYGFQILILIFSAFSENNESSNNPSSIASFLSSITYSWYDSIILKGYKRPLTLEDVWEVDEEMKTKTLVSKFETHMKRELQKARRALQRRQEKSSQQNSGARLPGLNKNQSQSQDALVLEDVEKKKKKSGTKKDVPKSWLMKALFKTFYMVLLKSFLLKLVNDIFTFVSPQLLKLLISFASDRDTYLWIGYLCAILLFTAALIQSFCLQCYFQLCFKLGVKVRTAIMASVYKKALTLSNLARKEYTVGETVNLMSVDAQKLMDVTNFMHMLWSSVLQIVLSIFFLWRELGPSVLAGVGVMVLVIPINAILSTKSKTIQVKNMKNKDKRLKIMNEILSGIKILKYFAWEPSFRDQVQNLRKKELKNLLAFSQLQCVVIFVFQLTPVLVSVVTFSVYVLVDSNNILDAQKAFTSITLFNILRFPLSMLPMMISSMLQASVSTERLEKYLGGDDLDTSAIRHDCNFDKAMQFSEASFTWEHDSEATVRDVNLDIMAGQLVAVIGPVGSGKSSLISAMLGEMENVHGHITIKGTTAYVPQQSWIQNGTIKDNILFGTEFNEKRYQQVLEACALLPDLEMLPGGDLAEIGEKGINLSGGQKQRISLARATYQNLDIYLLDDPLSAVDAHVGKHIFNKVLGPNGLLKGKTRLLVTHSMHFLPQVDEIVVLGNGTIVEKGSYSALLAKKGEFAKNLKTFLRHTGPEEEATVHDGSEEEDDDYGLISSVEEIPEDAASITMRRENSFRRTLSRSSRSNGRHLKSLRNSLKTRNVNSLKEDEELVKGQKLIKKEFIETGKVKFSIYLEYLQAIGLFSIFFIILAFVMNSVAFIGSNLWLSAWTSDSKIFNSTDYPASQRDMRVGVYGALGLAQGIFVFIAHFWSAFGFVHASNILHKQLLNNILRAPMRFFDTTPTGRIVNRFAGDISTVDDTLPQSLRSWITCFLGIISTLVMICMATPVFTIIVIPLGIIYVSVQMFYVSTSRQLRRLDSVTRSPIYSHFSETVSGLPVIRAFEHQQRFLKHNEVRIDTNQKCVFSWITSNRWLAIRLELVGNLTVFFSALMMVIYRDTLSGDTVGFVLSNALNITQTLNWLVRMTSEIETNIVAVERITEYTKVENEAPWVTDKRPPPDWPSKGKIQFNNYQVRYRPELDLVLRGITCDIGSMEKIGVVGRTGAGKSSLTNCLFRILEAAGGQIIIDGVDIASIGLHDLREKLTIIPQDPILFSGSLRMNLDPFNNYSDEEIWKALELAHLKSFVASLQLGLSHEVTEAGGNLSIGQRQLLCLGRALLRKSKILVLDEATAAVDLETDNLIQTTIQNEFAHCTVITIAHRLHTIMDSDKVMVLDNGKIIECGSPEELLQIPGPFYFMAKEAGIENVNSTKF
# Experimental: as §2, §6, §4, §5
# MRP2 [5] = system: T2, MRP2; experiment: as above; assay type: in vitro ADME, human; set-up: key to Modulatory effect: +: Indicates that the inhibitor has significant effect on the loganin transport; details: human, Caco-2, pH 7.4; with indomethacin 200 μM, loganin 20 μM, n = 3
# T2 construct: MRP2 and MRP3 were the main apically and basolaterally localized MRPs of the Caco-2 cells; endogenous in cells; host or cells: Caco-2 monolayers
# Experimental: as §2, §6, §4, §5
# [6] = Caco-2, pH 7.4, control, no inhibitor, loganin 20 μM, n = 3
# [7] = human, Caco-2, pH 7.4, with cimetidine 50 μM, loganin 20 μM, n = 3
# [8] = human, Caco-2, pH 7.4, with MK571 100 μM, with MK 571 100 μM, loganin 20 μM, n = 3
# [9] = with 100 μM MK 571, 20 μM loganin
structure (smiles),measurement,setting,value
"COC(=O)C1=CO[C@@H](O[C@@H]2O[C@H](CO)[C@@H](O)[C@H](O)[C@H]2O)[C@@H]2[C@@H](C)[C@@H](O)C[C@H]12 [loganin, Loganin]",Survival Rates,"[1]; loganin 200 μM, MTT, n = 5, mean ± SD",95.33±5.3%
same,Toxicity to Caco-2 cells (in words),"[1]; loganin 0.1 to 100 μM, after 4 h exposure (so in the source)",nontoxic
same,Intestinal absorption indicated by Papp values (in words),[2]; classification by Papp > 1×10^−5cm/s = high absorption (>70%),good intestinal absorption
same,PappAB at pH 7.4 compared with pH 6 (in words),"[2]; loganin 20 μM, AP to BL, 60 min, p<0.05",significantly higher
same,"Papp A→B at 60 min, 20 µM",[3]; 4°C,7.12 ×10⁻⁶ cm/s
same,"Papp A→B at 60 min, 20 µM",[3]; 37°C,11.3 ×10⁻⁶ cm/s
same,"Papp A→B at 120 min, 20 μM",[3]; [6],13 ± 0.7 ×10⁻⁶ cm/s
same,"Papp B→A at 120 min, 20 μM",[3]; [6],11.7 ± 0.9 ×10⁻⁶ cm/s
same,"efflux ratio at 120 min, 20 μM","[3]; Caco-2, pH 7.4, control, no inhibitor, loganin 20 μM, read-out: P (efflux ratio PappBA/PappAB)",0.9
same,Papp A→B at 120 min,"[3]; Caco-2, pH 7.4, range over 5, 20, 40 and 80 μM loganin, read-out: Absorptive permeability PappAB (AP to BL)",12.2 to 14.8 ×10⁻⁶ cm/s
same,Papp B→A at 120 min,"[3]; Caco-2, pH 7.4, range over 5, 20, 40 and 80 μM loganin, read-out: Secretory permeability PappBA (BL to AP)",11.1 to 13 ×10⁻⁶ cm/s
same,"efflux ratio at 120 min, 20 μM","OATs; human, Caco-2, pH 7.4, with cimetidine 50 μM, read-out: P (efflux ratio PappBA/PappAB)",0.9
same,"Papp A→B at 120 min, 20 μM",OATs; [7],11 ± 1.5 ×10⁻⁶ cm/s
same,"Papp B→A at 120 min, 20 μM",OATs; [7],9.9 ± 2 ×10⁻⁶ cm/s
same,Effect on Papp values (in words),OATs; pretreatment with 50 μM cimetidine,no significant effects
same,Increase of transport from the apical to the basolateral side,"MRPs; after addition of a MRP inhibitor (not named in the abstract), vs control",2.09 fold
same,"Papp A→B at 120 min, 20 μM",MRPs; [8],27.2 ± 4.1 ×10⁻⁶ cm/s
same,"Papp B→A at 120 min, 20 μM",MRPs; [8],3.9 ± 0.2 ×10⁻⁶ cm/s
same,"efflux ratio at 120 min, 20 μM","MRPs; human, Caco-2, pH 7.4, with MK571 100 μM, with MK 571 100 μM, read-out: P (efflux ratio PappBA/PappAB)",0.14
same,PappAB relative to control group,MRPs; [9],~2 fold
same,Reduction of PappBA vs control,MRPs; [9],66.7%
same,Modulatory effect,MRPs; with MK 571 100 μM,+
same,"efflux ratio at 120 min, 20 μM","MRP2 [4]; human, Caco-2, pH 7.4, with indomethacin 200 μM, read-out: P (efflux ratio PappBA/PappAB)",0.18
same,Modulatory effect,MRP2 [4]; with indomethacin 200 μM,+
same,Increase of PappAB vs control,"MRP2 [4]; with indomethacin, p < 0.01",2.0 fold
same,"Papp A→B at 120 min, 20 μM",MRP2 [5],24.7 ± 4.8 ×10⁻⁶ cm/s
same,"Papp B→A at 120 min, 20 μM",MRP2 [5],4.4 ± 1.1 ×10⁻⁶ cm/s
